From PMC1345695 (Nucleic Acids Research, 2006)
pKd: −log10 of the molar value.

Molecular target: wt tetrameric Lac repressor (tet. LacR) (Escherichia coli, UniProt P03023)
Assay: band shift of operator DNA, IPTG titration, non-linear regression
Format: binding

Chain of wt tetrameric Lac repressor (tet. LacR) (P03023 whole entry): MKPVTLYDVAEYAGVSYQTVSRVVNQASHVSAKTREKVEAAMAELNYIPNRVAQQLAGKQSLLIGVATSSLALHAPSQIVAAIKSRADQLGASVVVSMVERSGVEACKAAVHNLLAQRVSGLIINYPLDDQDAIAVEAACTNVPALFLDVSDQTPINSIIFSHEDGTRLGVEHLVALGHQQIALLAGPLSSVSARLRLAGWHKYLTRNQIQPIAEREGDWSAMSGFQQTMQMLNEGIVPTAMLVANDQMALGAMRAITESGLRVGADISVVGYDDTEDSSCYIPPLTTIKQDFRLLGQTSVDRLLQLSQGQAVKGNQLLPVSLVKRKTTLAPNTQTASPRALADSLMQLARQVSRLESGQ

pKd: 5.09
Structure (SMILES): CC(C)S[C@@H]1O[C@H](CO)[C@H](O)[C@H](O)[C@H]1O [IPTG]
